From patent US20100247551A1, “Use of Lipocalin 2 in the Regulation of Insulin Sensitivity” (priority 2006, published 2010) come the findings set out here.

In test [1] the test system is Lcn2 expression in 3T3-L1 adipocytes. As to the kind of experiment: Lcn2 mRNA expression in mature 3T3-L1 adipocytes (Q-PCR). It is filed as cell-based, mouse. Conditions: Dex 1 μM or TNF 4 ng/μL (FIG. 1). The procedure:
Mature 3T3-L1 adipocytes were treated with Dex (1 μM) or TNF (4 ng/μL) in the presence or absence of rosiglitazone (Rosi; 1 μM), and Lcn2 mRNA levels were measured by Q-PCR. Data presented as mean±SD, *p<0.05, ***p=0.005 relative to no Rosi.

The next test relates to H4IIe hepatocytes. As to the kind of experiment: Insulin resistance in H4IIe hepatocytes (glucose production, glucose-6-phosphatase mRNA expression). It is filed as cell-based. Conditions: liganded Lcn2 10 nM, with or without insulin 100 nM (FIG. 6). As for the experimental part:
FIG. 6A: Left, Glucose production induced by liganded Lcn2 (10 nM) or Dex (250 nM) in the presence or absence of insulin (100 nM). Right, effect of liganded Lcn2 (10 nM) or Dex (250 nM) on glucose-6-phosphatase mRNA expression in the presence or absence of insulin (100 nM). FIG. 6B: Dose response of liganded Lcn2 on glucose-6-phosphatase expression. FIG. 6C: Effect of apo-Lcn2 on glucose-6-phosphatase expression. For all panels, mean±SD, p<0.05, **p<0.01, n=3.

For the molecule TNF-α, the Lcn2 expression result in test [1] is “dramatically induced”.

B1: recombinant Lcn2: exogenous recombinant lipocalin 2 protein (protein, UniProt P80188 21-198, looked up)
Neutrophil …: QDSTSDLIPAPPLSKVPLQQNFQDNQFQGKWYVVGLAGNAILREDKDPQKMYATIYELKEDKSYNVTSVLFRKKKCDYWIRTFVPGCQPGEFTLGNIKSYPGLTSYLVRVVSTNYNQHAMVFFKKVSQNREYFKITLYGRTKELTSELKENFIRFSKSLGLPENHIVFPVPIDQCIDG
In the case of B1, the “insulin resistance (glucose production, glucose-6-phosphatase expression)” value with H4IIe hepatocytes is recorded as “induces insulin resistance”.
